US20100196365A1, “USE OF IMIDAZOQUINOLINES FOR THE TREATMENT OF EGFR DEPENDENT DISEASES OR DISEASES THAT HAVE ACQUIRED RESISTANCE TO AGENTS THAT TARGET EGFR FAMILY MEMBERS” (priority 2007, published 2010)

Tests used:
NCI-H358 cell line = test: proliferation assay (methylene blue assay) with NCI-H358 tumor cells; type: cell-based; details: Homo sapiens, read-out: Growth Inhibitory 50 (GI50)
NCI-H1975 cell line = test: proliferation assay in EGFR inhibitor resistant NCI-H1975 cell line; type: cell-based; details: Homo sapiens; NCI-H1975 cell line (HER1 T790M)
[1] = tested on: panel of breast tumor cell lines; test: antiproliferative activity in a panel of breast cancer cell lines (Methylene blue viable cell detection assay); type: cell-based, human
Procedure: The indicated cell lines are incubated with increasing amount of Compound A, and effect on the proliferation assessed with a Methylene blue viable cell detection assay. The cell lines indicated with a red asterisk are the ones in which cell death is observed (i.e. for which the absorbance observed for treated cells was lower than the original inoculum).
(§1) ErB-B2 (HER2) is often overexpressed in breast and ovarian cell lines.

NCI-H1975 tumors = details: for in vivo effect on tumor growth: s.c. NCI-H1975 tumors, athymic mice, p.o. (FIG. 3)
Procedure: Non small cell lung carcinoma cell lines with amplified EGFR, but refractory to EGFR inhibition therapy, are valuable models to test the sensitivity of PI3K inhibitors like the compounds of formula I in such genetic background. […] The in vivo antitumor activity of PI3K inhibitors like the compounds of formula I is tested against this EGFR driven and inhibitor resistant tumor model (FIG. 3).

BT474 tumors = test: antitumor activity against s.c. BT474 xenografts; type: in vivo, mice; details: BT474 subcutaneous xenografts, 45 mg/kg, po, once per day (FIG. 6)
Text: as §1

| Compound | GI50 (NCI-H358 cell line) | GI50 (NCI-H1975 cell line) | GI50 ([1]; Homo sapiens, panel of breast tumor cell lines containing or not ErbB2 amplification, read-out: median GI50) | cell death ([1]; cell lines that overexpressed ErbB2 (FIG. 5)) | tolerability (body weight, control vs treatment groups) (NCI-H1975 tumors; mouse, in vivo) | in vivo effect on tumor growth (NCI-H1975 tumors) | in vivo antitumor effect (BT474 tumors) |
| --- | --- | --- | --- | --- | --- | --- | --- |
| Cn1c(=O)n(-c2ccc(C(C)(C)C#N)cc2)c2c3cc(-c4cnc5ccccc5c4)ccc3ncc21 [Compound A, 2-methyl-2-[4-(3-methyl-2-oxo-8-quinolin-3-yl-2,3-dihydro-imidazo[4,5-c]quinolin-1-yl)-phenyl]-propionitrile] | 31 nM | 11.4 nM | 11.1 nM | induces cell death | well tolerated | causes in vivo tumor growth inhibition | tumor regression |
| CCN1CCN(Cc2ccc(-c3cc4c(N[C@H](C)c5ccccc5)ncnc4[nH]3)cc2)CC1 [NVP-AEE788, reference compound] | – | – | – | – | – | no significant inhibition on tumor growth | – |
| C#Cc1cccc(Nc2ncnc3cc(OCCOC)c(OCCOC)cc23)c1 [erlotinib, reference compound] | – | – | – | – | – | no significant inhibition on tumor growth | – |
